# Laboratory results reported in patent US4963538A, “5-oxygenated HMG-CoA reductase inhibitors” (Merck & Co., Inc., priority 1989, dated 1990).
# Target: T1, HMG-CoA reductase (Rattus norvegicus, UniProt P51639)
# T1 sequence (P51639 1-887): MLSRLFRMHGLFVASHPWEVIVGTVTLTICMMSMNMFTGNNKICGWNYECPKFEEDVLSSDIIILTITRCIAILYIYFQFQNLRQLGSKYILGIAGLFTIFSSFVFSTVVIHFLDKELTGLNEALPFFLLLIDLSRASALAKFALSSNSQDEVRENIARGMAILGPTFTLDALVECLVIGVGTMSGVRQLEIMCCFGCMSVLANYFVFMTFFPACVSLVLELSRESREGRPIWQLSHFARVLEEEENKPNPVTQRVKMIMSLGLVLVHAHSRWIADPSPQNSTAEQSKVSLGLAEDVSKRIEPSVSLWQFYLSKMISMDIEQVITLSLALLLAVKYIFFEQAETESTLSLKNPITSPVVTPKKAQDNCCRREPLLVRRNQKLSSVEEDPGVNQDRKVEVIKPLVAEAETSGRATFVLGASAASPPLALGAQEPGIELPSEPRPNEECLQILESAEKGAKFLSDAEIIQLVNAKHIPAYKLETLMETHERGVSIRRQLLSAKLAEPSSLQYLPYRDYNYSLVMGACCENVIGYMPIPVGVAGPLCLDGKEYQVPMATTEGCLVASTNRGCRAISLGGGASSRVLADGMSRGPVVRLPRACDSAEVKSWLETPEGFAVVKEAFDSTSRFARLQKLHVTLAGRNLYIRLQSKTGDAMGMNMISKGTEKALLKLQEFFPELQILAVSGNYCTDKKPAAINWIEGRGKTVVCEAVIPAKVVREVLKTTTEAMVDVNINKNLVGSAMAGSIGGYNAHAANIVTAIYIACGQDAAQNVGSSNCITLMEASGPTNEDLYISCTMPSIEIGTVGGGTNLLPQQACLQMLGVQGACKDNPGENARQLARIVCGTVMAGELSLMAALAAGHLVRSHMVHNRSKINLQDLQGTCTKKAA
# Assay: intrinsic HMG-CoA reductase inhibition, in vitro protocol of J. Med. Chem., 28, p. 347-358 (1985)
# Format: biochemical
# Details: compactin (mevastatin) assigned 100; IC50 of test compound compared with that of compactin determined simultaneously
# Protocol: The intrinsic HMG-CoA reductase inhibition activity of the claimed compounds is measured in the in vitro protocol published in J. Med. Chem., 28, p. 347-358 (1985).
# For estimation of relative inhibitory potencies, compactin (i.e., mevastatin) was assigned a value of 100 and the IC50 value of the test compound was compared with that of compactin determined simultaneously in the published in vitro protocol.
row,SMILES,Relative Potency
1,"CCC(C)(C)C(=O)O[C@H]1C[C@@H](C)[C@@H](OC(=O)NCc2ccccc2)[C@@H]2CC[C@H](C)[C@H](CC[C@@H]3C[C@@H](O)CC(=O)O3)[C@H]21 [6(R)-[2-[8(S) (2,2-dimethylbutyryloxy)-2(S)methyl 5(R)-benzylaminocarbonyloxy-6(R)-methyl-1,2,3,4,4a(R)-,5,6,7,8,8a(R)-decahydronaphthyl-1(S)]ethyl]-4-(R)-hydroxy-3,4,5,6-tetrahydro-2H-pyran-2-one]",360
2,"CCC(C)(C)C(=O)O[C@H]1C[C@@H](C)[C@@H](OCCc2ccccc2)[C@@H]2CC[C@H](C)[C@H](CC[C@@H]3C[C@@H](O)CC(=O)O3)[C@H]21 [6(R)-[2-[8(S)-(2,2-dimethylbutyryloxy)-2(S)-methyl-5(R)-(1-phenylethyl-2-oxy)-6(R)-methyl-1,2,3,4,4a(R)-,5,6,7,8, 8a(R)-decahydronaphthyl-1(S)]ethyl]-4(R)-hydroxy-3,4,5,6-tetrahydro-2H-pyran-2-one]",300
3,"CCC(C)(C)C(=O)O[C@H]1C[C@@H](C)[C@@H](OP(=O)(c2ccccc2)c2ccccc2)[C@@H]2CC[C@H](C)[C@H](CC[C@@H]3C[C@@H](O)CC(=O)O3)[C@H]21 [6(R)-[2-[8(S)-(2,2-dimethylbutyryloxy)-2(S)-methyl-5(R)-diphenylphosphinyloxy-6(R)-methyl-1,2,3,4,4a(R),5,6,7,8,8a(R)-decahydronaphthyl-1(S)]ethyl]-4(R)-hydroxy-3,4,5,6-tetrahydro-2H-pyran-2-one]",300
4,"CCC(C)(C)C(=O)O[C@H]1C[C@@H](C)[C@@H](O)[C@@H]2CC[C@H](C)[C@H](CC[C@@H]3C[C@@H](O)CC(=O)O3)[C@H]21 [6(R)-[2-[8(S)-(2,2-dimethylbutyryloxy)-2(S)-methyl-5(R)-hydroxy-6(R)-methyl-1,2,3,4,4a(R),6,7,8,8a(R)-decahydronapththyl-1(S)]ethyl]-4(R)-hydroxy-3,4,5,6-tetrahydro-2H-pyran-2-one]",50
5,"CCC(C)(C)C(=O)O[C@H]1C[C@@H](C)[C@@H](O)[C@@H]2C=C[C@H](C)[C@H](CC[C@@H]3C[C@@H](O)CC(=O)O3)[C@H]21 [6(R)-[2-[8(S)-(2,2-dimethylbutyryloxy)-2(S)-methyl-5(R)-hydroxy-6(R)-methyl-1,2,4a(R),5,6,7,8,8a(R)-octahydronaphthyl-1(S)]ethyl]-4(R)-hydroxy-3,4,5,6-tetrahydro-2H-pyran-2-one]",100

# Further lines, results first:
row,Relative Potency,SMILES
1,99.6,"CCC(C)(C)C(=O)O[C@H]1C[C@H](C)[C@@H](O)[C@@H]2CC[C@H](C)[C@H](CC[C@@H]3C[C@@H](O)CC(=O)O3)[C@H]21 [6(R)-[2-[8(S)-(2,2-dimethylbutyryloxy)-2(S)-methyl-5(R)-hydroxy-6(S)-methyl-1,2,3,4,4a(R)-,6,7,8,8a(R)-decahydronaphthyl-1(S)]ethyl]-4(R)-hydroxy-3,4,5,6-tetrahydro-2H-pyran-2-one]"
2,11.1,"CCC(C)(C)C(=O)O[C@H]1C[C@H](C)[C@H](O)[C@@H]2CC[C@H](C)[C@H](CC[C@@H]3C[C@@H](O)CC(=O)O3)[C@H]21 [6(R)-[2-[8(S)-(2,2-dimethylbutyryloxy)-2(S)-methyl-5(S)-hydroxy-6(S)-methyl-1,2,3,4,4a-(R)-,6,7,8,8a(R)-decahydronaphthyl-1(S)]ethyl]-4(R)-hydroxy-3,4,5,6-tetrahydro-2H-pyran-2-one]"
3,125,"CCC(C)(C)C(=O)O[C@H]1C[C@@H](C)C(=O)[C@@H]2CC[C@H](C)[C@H](CC[C@@H]3C[C@@H](O)CC(=O)O3)[C@@H]12 [6(R)-[2-[8(S)-(2,2-dimethylbutyryloxy)-2(S)-methyl-5-oxo-6(R)-methyl-1,2,3,4,4a(R)-,6,7,8,8a(R)-nonanydronaphthyl-1(S)]ethyl]-4(R)-hydroxy-3,4,5,6-tetrahydro-2H-pyran-2-one]"
4,94,"CCC(C)(C)C(=O)O[C@H]1C[C@@H](C)[C@@H](OC(=O)N(Cc2ccccc2)Cc2ccccc2)[C@@H]2CC[C@H](C)[C@H](CC[C@@H]3C[C@@H](O)CC(=O)O3)[C@H]21 [6(R)-[2-[8(S)-(2,2-dimethylbutyryloxyl)-2(S)-methyl-5(R)-dibenzylaminocarbonyloxy-6(R)-methyl-1,2,3,4,4a(R)-,5,6,7,8,8a(R)-decahydronaphthyl-1(S)]ethyl]-4(R)-hydroxy-3,4,5,6-tetrahydro-2H-pyran-2-one]"
